From patent publication US20190223437A1, “ACTIVE COMPOUND COMBINATIONS COMPRISING A 5-SUBSTITUTED IMIDAZOLE DERIVATIVE” (BAYER CROPSCIENCE AKTIENGESELLSCHAFT, priority 2016, published 2019)
Several values for one entry are separate records, joined by “and”; a condition that tells them apart may be missing. Equal values may be shown once. Read-outs that look alike come from different tables or passages of the source.

Legend:
[1] = tested on: causal agent of apple scab (Venturia inaequalis); test: Example E: in vivo preventive test on Venturia test (apples); conditions: compound alone
[2] = tested on: causal agent of soybean rust (Phakopsora pachyrhizi); test: Example C: in vivo preventive test on Phakopsora test (soybeans); conditions: compound alone
Alternaria solani = test: Example A: in vivo preventive test on Alternaria test (tomatoes); conditions: compound alone, evaluated 3 days after inoculation
Description: (§1) The test is evaluated 3 days after the inoculation.

Alternaria alternata = test: Example F: in vitro-Test with Alternaria alternata; format: cell-based; conditions: compound alone, growth inhibition, photometric, 3-5 days after application
Colletotrichum coccodes = test: Example B: in vivo preventive test on Colletotrichum test (tomatoes); conditions: compound alone
Description: as §1

[3] = tested on: fish (Danio rerio) embryos; test: Example G: in vivo ecotoxicity screening test on fish (Danio rerio); conditions: active compound alone, fish (D. rerio) embryos; for Ecotoxicity LC50-48 h found: mortality after 48 h; for Ecotoxicity LC50-96 h found: mortality after 96 h
Description: (§2) with ECxi the Effect Concentration (EC) of each chemical i (in ppm) causing x % effect on the ecotoxicity test endpoint.
(§3) For each compound combination, the predicted ECx value is calculated. It is then compared to an experimentally measured value. The ratio of predicted versus measured effect for the combination (thereafter called the Model Deviation Ratio or MDR) is then calculated.
(§4) The environmental effect of the compound combinations was measured experimentally in laboratory ecotoxicity screening studies with fish (Danio rerio). […] Mortality was recorded after 48 h and 96 h for each tested concentration and a reference control. […] Then, the MDR values were calculated.
(§5) This concentrate is then diluted with water to the desired a.i. concentration, leading to a maximal solvent concentration of 0.5%. by weight The compounds alone and the combinations were tested for five increasing concentrations comprised between 0.01 and 1000 ppm (mg/1) a.i., (e.g. 0.1, 1.0, 10 and 100 ppm a.i). For the combinations, compounds A and B were mixed in a weight ratio of 5:1 to 1:5 and five increasing concentrations were tested for each ratio.

Pyricularia oryzae = format: cell-based; conditions: compound alone
Septoria tritici = test: Example F: in vitro-Test with Septoria tritici; format: cell-based; conditions: compound alone
[4] = Example G: in vivo ecotoxicity screening test on fish (Danio rerio); conditions: Danio rerio, in vivo, other: exposure of embryos in water containing the compound
Description: as §2, §3, §4, §5

Sphaerotheca fuliginea = test: Example D: in vivo preventive test on Sphaerotheca test (cucumbers); conditions: compound alone
Pyrenophora oryzae = test: Example F: in vitro-Test with Pyrenophora oryzae; format: cell-based; conditions: compound alone

mancozeb [5.013 mancozeb]
Efficacy in % found ([1]; 5 ppm a.i.): 15%
Efficacy in % found ([1]; 10 ppm a.i.): 49%
Efficacy in % found ([1]; 20 ppm a.i.): 95%
Efficacy in % found ([2]; 12.5 ppm a.i.): 0%
Efficacy in % found ([2]; 25 ppm a.i.): 15%
Efficacy in % found ([2]; 50 ppm a.i.): 80%
Efficacy in % found (Alternaria solani; 12.5 ppm a.i.): 8%
Efficacy in % found (Alternaria solani; 25 ppm a.i.): 10%
Efficacy in % found (Alternaria solani; 50 ppm a.i.): 85%
Efficacy % (Alternaria alternata; 0.8 ppm): 51%
Efficacy % (Alternaria alternata; 4 ppm): 78%
Efficacy in % found (Colletotrichum coccodes; 12.5 ppm a.i.): 0%
Efficacy in % found (Colletotrichum coccodes; 25 ppm a.i.): 0%
Efficacy in % found (Colletotrichum coccodes; 50 ppm a.i.): 8%

metalaxyl [12.003 metalaxyl]
Ecotoxicity LC50-48 h found [3]: >200 ppm a.i.
Ecotoxicity LC50-96 h found [3]: >200 ppm a.i.
Efficacy in % found ([2]; 50 ppm a.i.): 0%
Efficacy in % found ([2]; 100 ppm a.i.): 0%
Efficacy in % found ([2]; 200 ppm a.i.): 20%
Efficacy % (Pyricularia oryzae; 20 ppm): 0%
Efficacy % (Pyricularia oryzae; 100 ppm): 5%
Efficacy in % found (Alternaria solani; 50 ppm a.i.): 8%
Efficacy in % found (Alternaria solani; 100 ppm a.i.): 8%
Efficacy in % found (Alternaria solani; 200 ppm a.i.): 30%
Efficacy % (Septoria tritici; 20 ppm): 43%
Efficacy % (Septoria tritici; 100 ppm): 31%
Efficacy in % found (Colletotrichum coccodes; 50 ppm a.i.): 0%
Efficacy in % found (Colletotrichum coccodes; 100 ppm a.i.): 0%
Efficacy in % found (Colletotrichum coccodes; 200 ppm a.i.): 8%

Cc1nn(C)c(F)c1C(=O)Nc1ccccc1C(C)CC(C)C (stereo not drawn) [Example 2.017, penflufen]
Ecotoxicity LC50-48 h found [3]: 1.74 ppm a.i.
Ecotoxicity LC50-96 h found [3]: 0.62 ppm a.i.

CCCN(CC)CC1COC2(CCC(C(C)(C)C)CC2)O1 (stereo not drawn) [1.020 spiroxamine, spiroxamine, reference compound]
LC50 at 48 h [4]: 16.5 µg/mL
LC50 at 96 h [4]: 14.8 µg/mL
Efficacy in % found (Sphaerotheca fuliginea; 25 ppm a.i.): 0%
Efficacy in % found (Sphaerotheca fuliginea; 50 ppm a.i.): 30%
Efficacy in % found (Sphaerotheca fuliginea; 100 ppm a.i.): 40%
Efficacy % (Alternaria alternata; 4 ppm): 13%
Efficacy % (Alternaria alternata; 20 ppm): 5%
Efficacy % (Alternaria alternata; 100 ppm): 66%

N#Cc1cncn1CC(O)(Cc1ccccc1F)C1(Cl)CC1 (stereo not drawn) [Example I-34, 1-[2-(1-chlorocyclopropyl)-3-(2-fluorophenyl)-2-hydroxypropyl]-1H-imidazole-5-carbonitrile]
Efficacy in % found ([1]; 1 ppm a.i.): 8%
Efficacy in % found ([1]; 5 ppm a.i.): 66% and 68%
LC50 at 48 h [4]: 35.6 µg/mL
LC50 at 96 h [4]: 27.4 µg/mL
Efficacy in % found (Sphaerotheca fuliginea; 1 ppm a.i.): 0%
Efficacy in % found (Sphaerotheca fuliginea; 5 ppm a.i.): 0%
Efficacy in % found ([2]; 1 ppm a.i.): 8% and 0%
Efficacy in % found ([2]; 5 ppm a.i.): 93% and 88%
Efficacy % (Pyrenophora oryzae; 0.008 ppm): 0%
Efficacy % (Pyrenophora oryzae; 0.2 ppm): 0%
Efficacy in % found (Alternaria solani; 1 ppm a.i.): 15%
Efficacy in % found (Alternaria solani; 5 ppm a.i.): 45%
Efficacy % (Septoria tritici; 0.008 ppm): 0%
Efficacy % (Septoria tritici; 0.04 ppm): 28%
Efficacy % (Septoria tritici; 0.2 ppm): 59%
Efficacy % (Septoria tritici; 1 ppm): 68%
Efficacy in % found (Colletotrichum coccodes; 1 ppm a.i.): 8%
Efficacy in % found (Colletotrichum coccodes; 5 ppm a.i.): 60%

COCC(=O)N(c1c(C)cccc1C)[C@H](C)C(=O)OC [12.004 mefenoxam]
Efficacy in % found ([2]; 50 ppm a.i.): 0%
Efficacy in % found ([2]; 100 ppm a.i.): 8%
Efficacy in % found ([2]; 200 ppm a.i.): 0%
Efficacy % (Pyricularia oryzae; 20 ppm): 0%
Efficacy % (Pyricularia oryzae; 100 ppm): 0%
Efficacy % (Septoria tritici; 20 ppm): 28%
Efficacy % (Septoria tritici; 100 ppm): 42%
Efficacy in % found (Colletotrichum coccodes; 50 ppm a.i.): 0%
Efficacy in % found (Colletotrichum coccodes; 100 ppm a.i.): 8%
Efficacy in % found (Colletotrichum coccodes; 200 ppm a.i.): 15%

N#Cc1cncn1CC(O)(Cc1cccc(Cl)c1F)C1(Cl)CC1 (stereo not drawn) [Example I-145, 1-[3-(3-chloro-2-fluorophenyl)-2-(1-chlorocyclopropyl)-2-hydroxypropyl]-1H-imidazole-5-carbonitrile]
Efficacy in % found ([1]; 1 ppm a.i.): 0%
Efficacy in % found ([1]; 5 ppm a.i.): 66%
LC50 at 48 h [4]: 28.2 µg/mL
LC50 at 96 h [4]: 13.4 µg/mL
Efficacy in % found (Sphaerotheca fuliginea; 1 ppm a.i.): 0%
Efficacy in % found (Sphaerotheca fuliginea; 5 ppm a.i.): 0%
Efficacy in % found ([2]; 1 ppm a.i.): 0%
Efficacy in % found ([2]; 5 ppm a.i.): 45%
Efficacy % (Pyrenophora oryzae; 0.008 ppm): 0%
Efficacy % (Pyrenophora oryzae; 0.04 ppm): 0%
Efficacy % (Pyricularia oryzae; 0.2 ppm): 84%
Efficacy % (Pyricularia oryzae; 1 ppm): 87%
Efficacy in % found (Alternaria solani; 1 ppm a.i.): 8%
Efficacy in % found (Alternaria solani; 5 ppm a.i.): 40%
Efficacy % (Septoria tritici; 0.008 ppm): 29%
Efficacy % (Septoria tritici; 0.04 ppm): 25%
Efficacy % (Septoria tritici; 0.2 ppm): 51%
Efficacy % (Septoria tritici; 1 ppm): 63%
Efficacy % (Alternaria alternata; 0.008 ppm): 0%
Efficacy % (Alternaria alternata; 0.04 ppm): 0% and 2%
Efficacy % (Alternaria alternata; 0.2 ppm): 32%
Efficacy % (Alternaria alternata; 1 ppm): 1%
Efficacy in % found (Colletotrichum coccodes; 1 ppm a.i.): 23%
Efficacy in % found (Colletotrichum coccodes; 5 ppm a.i.): 75%

metalaxyl-M (mefenoxam) [Example 12.004]
Ecotoxicity LC50-48 h found [3]: >200 ppm a.i.
Ecotoxicity LC50-96 h found [3]: >200 ppm a.i.
